≈ marks a conversion by molar mass, not a printed value.
What was measured:
physchem [1] = settings: octanol/water, pH 1.5
physchem [2] = settings: octanol/water, pH 5
physchem [3] = settings: octanol/water, pH 6.5
physchem [4] = settings: octanol/water, pH 7.4
Staphylococcus aureus = assay: microbe, parasite or virus in culture; settings: ATCC 29213
[5] = system: Mycobacterium tuberculosis; assay: microbe, parasite or virus in culture; settings: H37Rv
Francisella tularensis = assay: microbe, parasite or virus in culture; settings: Schu S4
Escherichia coli = assay: microbe, parasite or virus in culture; settings: ATCC 25922

SMILES | logD (physchem [1]) | logD (physchem [2]) | logD (physchem [3]) | logD (physchem [4]) | MIC (Staphylococcus aureus) | MIC [5] | MIC (Francisella tularensis) | MIC (Escherichia coli)
CO[C@@H]1[C@@H](OC(N)=O)[C@@H](O)[C@H](Oc2ccc3c(O)c(NC(=O)c4cc(CC=C(C)C)c(O)c(CN(C)C(=O)CS(C)(=O)=O)c4)c(=O)oc3c2C)OC1(C)C | 1.29 | 1.28 | 1.15 | 0.6 | > 64 mg/L | > 10 mg/L | > 64 mg/L | > 64 mg/L
CO[C@@H]1[C@@H](OC(N)=O)[C@@H](O)[C@H](Oc2ccc3c(O)c(NC(=O)c4cc(CC=C(C)C)c(O)c(CN(C)C(=O)CNC(C)=O)c4)c(=O)oc3c2C)OC1(C)C | 1.33 | 1.32 | 1.19 | 0.67 | 16 mg/L (≈ 21.2 µM) | 2.5 mg/L (≈ 3.31 µM) | > 64 mg/L | > 64 mg/L
CO[C@@H]1[C@@H](OC(N)=O)[C@@H](O)[C@H](Oc2ccc3c(O)c(NC(=O)c4cc(CC=C(C)C)c(O)c(CN(C)C(=O)CCC(=O)O)c4)c(=O)oc3c2C)OC1(C)C | 2.25 | 0.93 | -0.61 | -1.7 | 64 mg/L (≈ 84.7 µM) | > 10 mg/L | > 64 mg/L | > 64 mg/L
CO[C@@H]1[C@@H](OC(N)=O)[C@@H](O)[C@H](Oc2ccc3c(O)c(NC(=O)c4cc(CC=C(C)C)c(O)c(CN(C)C(=O)Cc5nnn[nH]5)c4)c(=O)oc3c2C)OC1(C)C | 1.9 | 1.13 | 0.24 | -0.35 | > 64 mg/L | > 10 mg/L | > 64 mg/L | > 64 mg/L
CO[C@@H]1[C@@H](OC(N)=O)[C@@H](O)[C@H](Oc2ccc3c(O)c(NC(=O)c4cc(CC=C(C)C)c(O)c(CN(C)C(=O)CCCS(N)(=O)=O)c4)c(=O)oc3c2C)OC1(C)C | 1.27 | 1.27 | 1.14 | 0.62 | 16 mg/L (≈ 19.9 µM) | 10 mg/L (≈ 12.4 µM) | > 64 mg/L | > 64 mg/L
CO[C@@H]1[C@@H](OC(N)=O)[C@@H](O)[C@H](Oc2ccc3c(O)c(NC(=O)c4cc(CC=C(C)C)c(O)c(CN(C)C(=O)CN(C)C)c4)c(=O)oc3c2C)OC1(C)C | -1.18 | – | 1.15 | 1.32 | > 64 mg/L | > 10 mg/L | > 64 mg/L | > 64 mg/L
CCN(CC)Cc1cc(C(=O)Nc2c(O)c3ccc(O[C@@H]4OC(C)(C)[C@H](OC)[C@@H](OC(N)=O)[C@H]4O)c(C)c3oc2=O)cc(CC=C(C)C)c1O | 0.42 | 0.81 | 1.7 | 1.53 | > 64 mg/L | > 10 mg/L | > 64 mg/L | > 64 mg/L
CO[C@@H]1[C@@H](OC(N)=O)[C@@H](O)[C@H](Oc2ccc3c(O)c(NC(=O)c4cc(CC=C(C)C)c(O)c(CN5CCN(CCCN(C)C)CC5)c4)c(=O)oc3c2C)OC1(C)C | -4 | -2.97 | -1.32 | -0.59 | > 64 mg/L | > 10 mg/L | > 64 mg/L | > 64 mg/L
CO[C@@H]1[C@@H](OC(N)=O)[C@@H](O)[C@H](Oc2ccc3c(O)c(NC(=O)c4cc(CC=C(C)C)c(O)c(CN5CCN(c6ncccn6)CC5)c4)c(=O)oc3c2C)OC1(C)C | -0.46 | 1.46 | 2.63 | 2.48 | > 64 mg/L | > 10 mg/L | > 64 mg/L | > 64 mg/L
CO[C@@H]1[C@@H](OC(N)=O)[C@@H](O)[C@H](Oc2ccc3c(O)c(NC(=O)c4cc(CC=C(C)C)c(O)c(CN5CCCC5)c4)c(=O)oc3c2C)OC1(C)C | 0.11 | 0.38 | 1.34 | 1.39 | > 64 mg/L | 10 mg/L (≈ 14.4 µM) | > 64 mg/L | > 64 mg/L
CO[C@@H]1[C@@H](OC(N)=O)[C@@H](O)[C@H](Oc2ccc3c(O)c(NC(=O)c4cc(CC=C(C)C)c(O)c(CN(C)C(=O)c5ccccc5)c4)c(=O)oc3c2C)OC1(C)C | 4.28 | 4.28 | 4.15 | 3.63 | > 64 mg/L | > 10 mg/L | > 64 mg/L | > 64 mg/L
CO[C@@H]1[C@@H](OC(N)=O)[C@@H](O)[C@H](Oc2ccc3c(O)c(NC(=O)c4cc(CC=C(C)C)c(O)c(CN(C)C(=O)C(C)(C)C)c4)c(=O)oc3c2C)OC1(C)C | 4.23 | 4.23 | 4.1 | 3.58 | 16 mg/L (≈ 21.6 µM) | > 10 mg/L | 64 mg/L (≈ 86.5 µM) | > 64 mg/L
CO[C@@H]1[C@@H](OC(N)=O)[C@@H](O)[C@H](Oc2ccc3c(O)c(NC(=O)c4cc(CC=C(C)C)c(O)c(CN(C)C(=O)[C@H](C)OC(C)=O)c4)c(=O)oc3c2C)OC1(C)C | 2.62 | 2.62 | 2.49 | 1.97 | 16 mg/L (≈ 20.8 µM) | 2.5 mg/L (≈ 3.25 µM) | > 64 mg/L | > 64 mg/L
